# Patent US11840686B2, “Modulation of prekallikrein (PKK) expression” (Ionis Pharmaceuticals, Inc., priority 2013, dated 2023)
# Strand notation (5' to 3'): a small letter for the sugar, then the base; units joined by * are phosphorothioate-linked, units joined directly phosphodiester-linked; [ ] holds rarer units or linkages, { } end groups; capitals alone tell only the bases. e = 2'-O-(2-methoxyethyl) (MOE); [5mC] = 5-methylcytosine; d = 2'-deoxy (DNA)
# Test system: human PKK mRNA
# Assay: Antisense inhibition of human PKK mRNA in HepaRG cells, 5,000 nM (Example 2)
# Format: cell-based
# Settings: HepaRG cells, 5,000 nM antisense oligonucleotide; 5-10-5 gapmers; Table 16
# Procedure, shortened: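 qRT-PCR (RTS3454) read-out, RIBOGREEN-normalized; % inhibition vs untreated cells. HepaRG, 20,000 cells/well, electroporation, 5,000 nM ASO, ~24 h.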
row,Substance,% inhibition
1,547702 (antisense eA*e[5mC]*eA*eT*e[5mC]*dA*d[5mC]*dT*dG*dT*dA*d[5mC]*d[5mC]*dT*dA*eT*eA*eA*e[5mC]*eT) [compound 547702],44%
2,546914 (eA*eT*eA*eT*e[5mC]*dA*d[5mC]*dT*dG*dT*dA*d[5mC]*d[5mC]*dT*dA*eT*eA*eT*e[5mC]*eA; antisense) [compound 546914],52%
3,547717 (eA*e[5mC]*eT*e[5mC]*eT*dG*dG*d[5mC]*dA*d[5mC]*dT*dG*dG*dT*d[5mC]*eA*eT*eG*eG*eA; antisense) [compound 547717],54%
4,546926 (eG*e[5mC]*e[5mC]*eA*eT*d[5mC]*d[5mC]*dA*dG*dG*dG*dT*dG*d[5mC]*dT*e[5mC]*eT*e[5mC]*e[5mC]*e[5mC]; antisense) [compound 546926],81%

# Same assay, conditions: HepaRG cells, 5,000 nM antisense oligonucleotide; 5-10-5 gapmers; Table 17
row,Substance,% inhibition
1,547778 (antisense eT*e[5mC]*eA*e[5mC]*e[5mC]*dT*dG*dT*dG*dA*dG*dT*dA*dA*d[5mC]*e[5mC]*eA*eA*eT*eA) [compound 547778],53%
2,547071 (eG*e[5mC]*eA*eG*e[5mC]*d[5mC]*d[5mC]*d[5mC]*d[5mC]*d[5mC]*dA*dG*dA*dA*dA*eT*e[5mC]*e[5mC]*e[5mC]*eA; antisense) [compound 547071],27%
3,547740 (eA*eG*eG*eT*eG*dG*dT*dG*dG*dG*dA*dT*dT*dG*dG*eT*eG*eG*eT*eG; antisense) [compound 547740],30%
4,547015 (eG*eG*eT*eG*eG*dT*dG*dG*dG*dA*dT*dT*dG*dG*dT*eG*e[5mC]*eT*eG*eA; antisense) [compound 547015],55%
5,547774 (antisense eG*eA*eG*eA*e[5mC]*dA*dG*dT*dT*dT*dG*dG*d[5mC]*dA*dA*eG*e[5mC]*eT*eA*e[5mC]) [compound 547774],46%

# Same assay, conditions: HepaRG cells, electroporation with 5,000 nM antisense oligonucleotide, approximately 24 hours, PKK mRNA by RT-PCR (RTS3454), relative to untreated control cells; Table 5 experiment
row,Substance,% inhibition
1,547295 (antisense eA*e[5mC]*e[5mC]*eT*e[5mC]*dA*dT*d[5mC]*dT*dG*dG*d[5mC]*dA*dG*dT*eA*eT*eT*eG*eG) [compound 547295],88%
2,546155 (e[5mC]*e[5mC]*eT*e[5mC]*eA*dT*d[5mC]*dT*dG*dG*d[5mC]*dA*dG*dT*dA*eT*eT*eG*eG*eG; antisense) [compound 546155],47%

# Same assay, conditions: HepaRG cells, electroporation, 5,000 nM antisense oligonucleotide, approx. 24 hours, primer probe set RTS3454, relative to untreated control cells; Table 11
row,Substance,% inhibition
1,546382 (antisense e[5mC]*eA*eA*eA*eG*dA*dA*dG*dA*dT*dG*d[5mC]*d[5mC]*dA*d[5mC]*eT*e[5mC]*eT*e[5mC]*e[5mC]) [compound 546382],58%
2,546362 (antisense eT*e[5mC]*eA*eT*eG*d[5mC]*dT*dG*dG*dT*dG*dA*d[5mC]*dT*dG*e[5mC]*eA*eT*e[5mC]*eT) [compound 546362],71%
3,546357 (antisense eG*e[5mC]*eT*eT*eT*dT*d[5mC]*d[5mC]*dA*dT*d[5mC]*dA*d[5mC]*dT*dG*e[5mC]*eT*e[5mC]*eT*eG) [compound 546357],79%

# Same assay, conditions: HepaRG cells, electroporation, 5,000 nM antisense oligonucleotide, approx. 24 hours, primer probe set RTS3454, relative to untreated control cells; Table 12
row,Substance,% inhibition
1,547534 (antisense eA*eT*e[5mC]*eT*eG*dA*d[5mC]*dT*dA*dG*dT*dG*dA*dA*dT*eG*eG*e[5mC]*eT*eT) [compound 547534],72%
2,546687 (eT*eG*eA*eG*eA*d[5mC]*d[5mC]*dT*d[5mC]*d[5mC]*dA*dG*dA*d[5mC]*dT*eA*e[5mC]*eT*eG*eT; antisense) [compound 546687],76%
3,546419 (eT*eT*e[5mC]*eT*eA*dA*dT*dG*dT*dG*dG*d[5mC]*dA*d[5mC]*dT*eG*e[5mC]*eA*eG*eG; antisense) [compound 546419],65%
4,546444 (e[5mC]*e[5mC]*eA*eG*eA*dA*dT*d[5mC]*dA*dT*dG*d[5mC]*d[5mC]*dT*dT*eG*eT*eG*eG*eG; antisense) [compound 546444],61%
5,547548 (antisense eT*eG*e[5mC]*eA*eT*dA*d[5mC]*dT*d[5mC]*dG*d[5mC]*d[5mC]*dT*dT*dT*eG*eT*eG*eA*eT) [compound 547548],61%

# Same assay, conditions: Table 7; HepaRG cells, electroporation with 5,000 nM antisense oligonucleotide, approx. 24 hours; PKK mRNA by RT-PCR (RTS3454), relative to untreated control cells
row,Substance,% inhibition
1,547378 (eT*eA*e[5mC]*eA*eT*dT*dT*dG*dT*dA*dT*dA*dG*dA*dA*eT*eG*eT*eA*eA; antisense) [compound 547378],0%
2,547385 (eT*eG*eT*eG*e[5mC]*d[5mC]*dA*d[5mC]*dT*dT*dT*d[5mC]*dA*dG*dA*eT*eG*eT*eT*eT; antisense) [compound 547385],80%
3,547386 (eA*e[5mC]*eT*eT*eG*dG*dT*dG*dT*dG*d[5mC]*d[5mC]*dA*d[5mC]*dT*eT*eT*e[5mC]*eA*eG; antisense) [compound 547386],78%
4,547375 (eG*eT*eG*eA*eT*dA*dG*dG*dT*dG*d[5mC]*dA*dG*dA*dT*eG*eG*eT*e[5mC]*e[5mC]; antisense) [compound 547375],72%
5,546231 (e[5mC]*eT*eT*eG*eG*dT*dG*dT*dG*d[5mC]*d[5mC]*dA*d[5mC]*dT*dT*eT*e[5mC]*eA*eG*eA; antisense) [compound 546231],79%
6,547383 (eT*eT*e[5mC]*eT*eT*dT*dG*dT*dG*dA*d[5mC]*dT*d[5mC]*dG*dA*eT*eT*eT*eT*e[5mC]; antisense) [compound 547383],37%
7,547384 (eA*eA*eA*e[5mC]*eA*dT*dT*dT*d[5mC]*dT*dT*dT*dG*dT*dG*eA*e[5mC]*eT*e[5mC]*eG; antisense) [compound 547384],50%

# Same assay, conditions: Table 8; HepaRG cells, electroporation with 5,000 nM antisense oligonucleotide, approx. 24 hours; PKK mRNA by RT-PCR (RTS3454), relative to untreated control cells
row,Substance,% inhibition
1,546270 (eA*e[5mC]*eA*e[5mC]*eT*dT*dA*d[5mC]*dA*d[5mC]*dT*dT*d[5mC]*dT*d[5mC]*eT*eT*e[5mC]*e[5mC]*eT; antisense) [compound 546270],32%
2,547427 (eA*eA*eG*eA*eG*dT*dA*dA*d[5mC]*d[5mC]*dA*dG*dA*dG*d[5mC]*eT*e[5mC]*e[5mC]*e[5mC]*eT; antisense) [compound 547427],79%
3,547443 (antisense e[5mC]*e[5mC]*eA*e[5mC]*eT*dG*dG*dT*dG*dT*d[5mC]*d[5mC]*dT*dA*dT*eG*eA*eG*eT*eG) [compound 547443],70%
4,547444 (antisense e[5mC]*eT*eA*eT*eA*dG*dA*dT*dG*d[5mC]*dG*d[5mC]*d[5mC]*dA*dA*eA*e[5mC]*eA*eT*e[5mC]) [compound 547444],71%
5,547438 (antisense eG*eG*eG*e[5mC]*e[5mC]*dA*d[5mC]*dT*d[5mC]*dT*d[5mC]*d[5mC]*d[5mC]*d[5mC]*dA*eA*eG*eA*eA*eG) [compound 547438],82%
6,546303 (antisense eT*eT*eT*eG*eT*dG*dA*dG*dA*dA*dA*dG*dG*dT*dG*eT*eA*eT*e[5mC]*eT) [compound 546303],77%
7,547446 (antisense eT*eT*eG*eT*eG*dA*dG*dA*dA*dA*dG*dG*dT*dG*dT*eA*eT*e[5mC]*eT*eT) [compound 547446],84%

# Same assay, conditions: Table 9 experiment; HepaRG cells, 20,000 cells per well, electroporation with 5,000 nM antisense oligonucleotide, approx. 24 hours; PKK mRNA by RT-PCR (RTS3454), relative to untreated control cells
row,Substance,% inhibition
1,547473 (antisense eT*eT*eT*eG*eG*dA*dT*dT*dT*d[5mC]*dA*d[5mC]*d[5mC]*dT*dT*eT*e[5mC]*eT*e[5mC]*e[5mC]) [compound 547473],5%

# Same assay, conditions: Table 10 experiment; HepaRG cells, 20,000 cells per well, electroporation with 5,000 nM antisense oligonucleotide, approx. 24 hours; PKK mRNA by RT-PCR (RTS3454), relative to untreated control cells
row,Substance,% inhibition
1,547473 (antisense eT*eT*eT*eG*eG*dA*dT*dT*dT*d[5mC]*dA*d[5mC]*d[5mC]*dT*dT*eT*e[5mC]*eT*e[5mC]*e[5mC]) [compound 547473],26%

# Same assay, conditions: Table 13; human PKK mRNA in HepaRG cells; 5-10-5 gapmers
row,Substance,% inhibition
1,547565 (e[5mC]*eT*eT*eA*eT*d[5mC]*dA*dG*dT*d[5mC]*d[5mC]*d[5mC]*dA*dG*dT*e[5mC]*eA*eT*eG*eT; antisense) [compound 547565],63%
2,547572 (eA*eA*eA*eT*eG*dA*d[5mC]*dA*d[5mC]*d[5mC]*dA*dA*dA*dA*dT*eT*e[5mC]*eG*e[5mC]*eT; antisense) [compound 547572],40%
3,547569 (eA*e[5mC]*eT*eA*e[5mC]*d[5mC]*dA*dT*dT*dT*dG*dG*dG*dT*dT*eG*eG*eT*eA*eG; antisense) [compound 547569],9%
4,547579 (eT*eG*eT*e[5mC]*e[5mC]*dT*dA*dT*dA*dA*d[5mC]*dT*d[5mC]*dT*dA*eA*e[5mC]*eA*eG*eT; antisense) [compound 547579],0%
5,546839 (e[5mC]*e[5mC]*eT*eA*eT*dA*dA*d[5mC]*dT*d[5mC]*dT*dA*dA*d[5mC]*dA*eG*eT*eA*eT*e[5mC]; antisense) [compound 546839],47%
6,546844 (eG*eT*e[5mC]*e[5mC]*eT*dA*dT*dA*dT*d[5mC]*dA*d[5mC]*dT*dG*dT*e[5mC]*e[5mC]*eT*eA*eT; antisense) [compound 546844],75%
7,546804 (eA*e[5mC]*eA*eT*eG*dA*d[5mC]*dT*d[5mC]*d[5mC]*dA*dG*dT*dG*dA*eT*eG*eG*eA*eT; antisense) [compound 546804],57%

# Same assay, conditions: human PKK mRNA, HepaRG cells, 5,000 nM antisense oligonucleotide, Table 18
row,Substance,% inhibition
1,548751 (antisense eA*e[5mC]*eT*eG*dT*dA*d[5mC]*dT*dA*dG*dT*dT*dT*d[5mC]*e[5mC]*eT*eA*eT) [compound 548751],53%

# Same assay, conditions: human PKK mRNA, HepaRG cells; 5-10-5 motif oligonucleotides targeting SEQ ID NO: 1 and 10
row,Substance,% inhibition
1,547630 (antisense eA*e[5mC]*eT*eG*eT*d[5mC]*d[5mC]*dT*dA*dT*dA*dT*d[5mC]*dA*d[5mC]*eT*e[5mC]*eT*eA*e[5mC]) [compound 547630],76%
